According to patent US20210040118A1, “IMMUNOMODULATORS, COMPOSITIONS AND METHODS THEREOF” (BETTA PHARMACEUTICALS CO., LTD, priority 2018, published 2021):

Each compound was assayed against T1, PD-1/PD-L1 (Homo sapiens, UniProt Q9NZQ7) (assay: PD-1/PD-L1 homogenous time-resolved fluorescence (HTRF) binding assay). Conditions: recombinant human PD-L1 (19-238) His-tag / human PD-1 (25-167) Fc tag, class symbols.
T1 construct: Recombinant human PD-L1 protein (19-238) with a His-tag at the C-terminus; purchased AcroBiosystems PD1-H5229 (PD-L1); PD1-H5257 (PD-1)
T1 sequence (Q9NZQ7 19-238): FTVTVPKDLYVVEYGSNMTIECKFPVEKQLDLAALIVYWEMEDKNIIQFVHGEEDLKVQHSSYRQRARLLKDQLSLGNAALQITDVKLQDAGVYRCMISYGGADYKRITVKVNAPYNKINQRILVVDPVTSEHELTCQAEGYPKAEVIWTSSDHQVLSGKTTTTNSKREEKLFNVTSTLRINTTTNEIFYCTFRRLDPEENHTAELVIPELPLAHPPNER
Outline: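 Inhibitors were preincubated 40 min at 25°C with 10 nM His-tagged human PD-L1 (19-238) and 3 nM Fc-tagged human PD-1 (25-167) in PBS pH 7.4 containing Tween-20, BSA and 1% DMSO. After 60 min with europium anti-human IgG and anti-His-APC, 665/620 nm signal ratio gave IC50 via percent-control fit.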

IC50	Structure (SMILES)
< 0.025 µM	CNCc1cnc(C(=O)N2CCc3c(-c4cccc5c4CCN5C(=O)c4ncc(CNC)s4)cccc32)s1 [Example 113, [4,4′-biindoline]-1,1′-diylbis((5-((methylamino)methyl)thiazol-2-yl)methanone)]
< 0.025 µM	O=C(O)CN1CCc2sc(C(=O)N3CCc4c(-c5cccc6c5CCN6C(=O)c5nc6c(s5)CCN(CC(=O)O)C6)cccc43)nc2C1 [Example 119, 2,2′-(([4,4′-biindoline]-1,1′-dicarbonyl)bis(6,7-dihydrothiazolo[4,5-c]pyridine-2,5(4H)-diyl))diacetic acid]
< 0.025 µM	O=C(c1nc2c(s1)CN(CCOCCO)CC2)N1CCc2c(-c3cccc4c3CCN4C(=O)c3nc4c(s3)CN(CCOCCO)CC4)cccc21 [Example 120, [4,4′-biindoline]-1,1′-diylbis((5-(2-(2-hydroxyethoxy)ethyl)-4,5,6,7-tetrahydrothiazolo[5,4-c]pyridin-2-yl)methanone)]
< 0.025 µM	O=C(c1nc2c(s1)CN(CCCB(O)O)CC2)N1CCc2c(-c3cccc4c3CCN4C(=O)c3nc4c(s3)CN(CCCB(O)O)CC4)cccc21 [Example 121, ((([4,4′-biindoline]-1,1′-dicarbonyl)bis(6,7-dihydrothiazolo[5,4-c]pyridine-2,5(4H)-diyl))bis(propane-3,1-diyl))diboronic acid]
< 0.025 µM	O=C(c1nc2c(s1)CN(Cc1nn[nH]n1)CC2)N1CCc2c(-c3cccc4c3CCN4C(=O)c3nc4c(s3)CN(Cc3nn[nH]n3)CC4)cccc21 [Example 125, [4,4′-biindoline]-1,1′-diylbis((5-((2H-tetrazol-5-yl)methyl)-4,5,6,7-tetrahydrothiazolo[5,4-c]pyridin-2-yl)methanone)]
0.025 to 0.1 µM	CC(C)(C(=O)NS(C)(=O)=O)N1CCc2nc(C(=O)N3CCc4c(-c5cccc6c5CCN6C(=O)c5nc6c(s5)CN(C(C)(C)C(=O)NS(C)(=O)=O)CC6)cccc43)sc2C1 [Example 128, 2,2′-(([4,4′-biindoline]-1,1′-dicarbonyl)bis(6,7-dihydrothiazolo[5,4-c]pyridine-2,5(4H)-diyl))bis(2-methyl-N-(methylsulfonyl)propanamide)]

Further lines, the compound ahead of its results:

Structure (SMILES)	IC50
Cc1nc(C(=O)N2CCc3c(-c4cccc(NC(=O)c5ncc(CN(C)CCO)s5)c4)cccc32)sc1CN(C)C [Example 114, N-(3-(1-(5-((dimethylamino)methyl)-4-methylthiazole-2-carbonyl)indolin-4-yl)phenyl)-5-(((2-hydroxyethyl)(methyl)amino)methyl)thiazole-2-carboxamide]	< 0.025 µM
Cc1nc(C(=O)N2CCc3c(-c4cccc5c4CCN5C(=O)c4ncc(CN(C)CCO)s4)cccc32)sc1CN(C)C [Example 115, (5-((dimethylamino)methyl)-4-methylthiazol-2-yl)(1′-(5-(((2-hydroxyethyl)(methyl)amino)methyl)thiazole-2-carbonyl)-[4,4′-biindolin]-1-yl)methanone]	< 0.025 µM
CN(CCO)Cc1cnc(C(=O)N2CCc3c(-c4cccc5c4CCN5C(=O)c4ncc(CN(C)CCO)s4)cccc32)s1 [Example 116, [4,4′-biindoline]-1,1′-diylbis((5-(((2-hydroxyethyl)(methyl)amino)methyl)thiazol-2-yl)methanone)]	< 0.025 µM
CS(=O)(=O)NCCN1CCc2nc(C(=O)N3CCc4c(-c5cccc6c5CCN6C(=O)c5nc6c(s5)CN(CCNS(C)(=O)=O)CC6)cccc43)sc2C1 [Example 117, N,N′-((([4,4′-biindoline]-1,1′-dicarbonyl)bis(6,7-dihydrothiazolo[5,4-c]pyridine-2,5(4H)-diyl))bis(ethane-2,1-diyl))dimethanesulfonamide]	< 0.025 µM
CN(CCN1CCc2nc(C(=O)N3CCc4c(-c5cccc6c5CCN6C(=O)c5nc6c(s5)CN(CCN(C)S(C)(=O)=O)CC6)cccc43)sc2C1)S(C)(=O)=O [Example 118, N,N′-((([4,4′-biindoline]-1,1′-dicarbonyl)bis(6,7-dihydrothiazolo[5,4-c]pyridine-2,5(4H)-diyl))bis(ethane-2,1-diyl))bis(N-methylmethanesulfonamide)]	< 0.025 µM
COB(CCCN1CCc2nc(C(=O)N3CCc4c(-c5cccc6c5CCN6C(=O)c5nc6c(s5)CN(CCCB(OC)OC)CC6)cccc43)sc2C1)OC [Example 122, tetramethyl((([4,4′-biindoline]-1,1′-dicarbonyl)bis(6,7-dihydrothiazolo[5,4-c]pyridine-2,5(4H)-diyl))bis(propane-3,1-diyl))diboronate]	< 0.025 µM
COP(=O)(CN1CCc2nc(C(=O)N3CCc4c(-c5cccc6c5CCN6C(=O)c5nc6c(s5)CN(CP(=O)(OC)OC)CC6)cccc43)sc2C1)OC [Example 123, dimethyl ((2-(1′-(5-((dimethoxyphosphoryl)methyl)-4,5,6,7-tetrahydrothiazolo[5,4-c]pyridine-2-carbonyl)-[4,4′-biindoline]-1-carbonyl)-6,7-dihydrothiazolo[5,4-c]pyridin-5(4H)-yl)methyl)phosphonate]	< 0.025 µM
COP(=O)(CCN1CCc2nc(C(=O)N3CCc4c(-c5cccc6c5CCN6C(=O)c5nc6c(s5)CN(CCP(=O)(OC)OC)CC6)cccc43)sc2C1)OC [Example 124, dimethyl (2-(2-(1′-(5-(2-(dimethoxyphosphoryl)ethyl)-4,5,6,7-tetrahydrothiazolo[5,4-c]pyridine-2-carbonyl)-[4,4′-biindoline]-1-carbonyl)-6,7-dihydrothiazolo[5,4-c]pyridin-5(4H)-yl)ethyl)phosphonate]	< 0.025 µM
CS(=O)(=O)NCCN1C2CCC1c1sc(C(=O)N3CCc4c(-c5cccc6c5CCN6C(=O)c5nc6c(s5)C5CCC(C6)N5CCNS(C)(=O)=O)cccc43)nc1C2 [Example 126, N,N′-((([4,4′-biindoline]-1,1′-dicarbonyl)bis(5,6,7,8-tetrahydro-4H-5,8-epiminocyclohepta[d]thiazole-2,9-diyl))bis(ethane-2,1-diyl))dimethanesulfonamide]	< 0.025 µM
CC(C(=O)NS(C)(=O)=O)N1CCc2nc(C(=O)N3CCc4c(-c5cccc6c5CCN6C(=O)c5nc6c(s5)CN(C(C)C(=O)NS(C)(=O)=O)CC6)cccc43)sc2C1 (stereo not drawn) [Example 127, 2,2′-(([4,4′-biindoline]-1,1′-dicarbonyl)bis(6,7-dihydrothiazolo[5,4-c]pyridine-2,5(4H)-diyl))bis(N-(methylsulfonyl)propanamide)]	< 0.025 µM
CS(=O)(=O)NC(=O)C1(N2CCc3nc(C(=O)N4CCc5c(-c6cccc7c6CCN7C(=O)c6nc7c(s6)CN(C6(C(=O)NS(C)(=O)=O)CC6)CC7)cccc54)sc3C2)CC1 [Example 129, 1,1′-(([4,4′-biindoline]-1,1′-dicarbonyl)bis(6,7-dihydrothiazolo[5,4-c]pyridine-2,5(4H)-diyl))bis(N-(methylsulfonyl)cyclopropane-1-carboxamide)]	0.025 to 0.1 µM
COC(=O)NCCN1CCc2nc(C(=O)N3CCc4c(-c5cccc6c5CCN6C(=O)c5nc6c(s5)CN(CCNC(=O)OC)CC6)cccc43)sc2C1 [Example 130, dimethyl ((([4,4′-biindoline]-1,1′-dicarbonyl)bis(6,7-dihydrothiazolo[5,4-c]pyridine-2,5(4H)-diyl))bis(ethane-2,1-diyl))dicarbamate]	< 0.025 µM
